Laboratory results reported in US20160264570A1, “METHOD OF BLOCKING TRANSMISSION OF MALARIAL PARASITE” (THE UNITED STATES OF AMERICA, AS REPRESENTED BY THE …, priority 2013, published 2016).
Read-outs that look alike come from different tables or passages of the source.

Columns and labels:
[1] = system: P. falciparum strain HB3 gametocytes; experiment: alamarBlue gametocyte viability assay, strain HB3; details: Plasmodium falciparum, HB3, read-out: HB3-IC50, Table 3; 11 concentrations, 1:3 dilution, three times
[2] = system: P. falciparum strain 3D7 gametocytes; experiment: alamarBlue gametocyte viability assay, strain 3D7
[3] = system: Asexual parasites of P. falciparum strain 3D7; experiment: SYBR Green viability assay on asexual parasites; format: cell-based, Plasmodium falciparum; details: for EC50: read-out: Activity against asexual parasites EC50
[4] = Plasmodium falciparum, 3D7, read-out: 3D7-IC50
[5] = read-out: Gametocytocidal activity EC50, Table 6
[6] = Plasmodium falciparum, 3D7, read-out: Gametocytocidal activity EC50, Table 7
[7] = Plasmodium falciparum, 3D7, Table 7

Row | Structure (SMILES) | EC50 [2, 5] [nM] | EC50 ([3]; Table 6) [nM] | other results
1 | CCN(CC)Cc1nccn1-c1ccc([N+](=O)[O-])cc1C(=O)c1ccccc1Cl [Nizofenone] | – | – | IC50 [1]: 14800 nM; IC50 [2, 4]: 23500 nM
2 | CCC(=O)N1CCN(c2ccc(-n3c(=O)ccc4cnc5ccc(-c6cnc7ccccc7c6)cc5c43)cc2C(F)(F)F)CC1 [Torin 1, reference compound] | – | – | IC50 ([2]; read-out: IC50 against 3D7 gametocytes): 1600 nM; times less potent than Torin 2 against asexual parasites [3]: 78 times; IC50 ([3]; read-out: IC50 in viability assay using asexual parasites): 215 nM
3 | CN(C)Cc1ccc2ncc3ccc(=O)n(-c4cccc(C(F)(F)F)c4)c3c2c1 | 666 | 242 | –
4 | O=c1ccc2cnc3ccc(-c4cccnc4)cc3c2n1-c1cccc(C(F)(F)F)c1 | 535 | 110 | –
5 | O=c1ccc2cnc3ccc(-c4ccc5[nH]ncc5c4)cc3c2n1-c1cccc(C(F)(F)F)c1 | 74 | 64 | –
6 | Cc1ccc(-c2ccc3ncc4ccc(=O)n(-c5cccc(C(F)(F)F)c5)c4c3c2)cc1 | 794 | 372 | –
7 | O=c1ccc2cnc3ccc(-c4cnc5ccccc5c4)cc3c2n1-c1cccc(C(F)(F)F)c1 | 2270 | 1180 | –
8 | Cc1ccc(C(F)(F)F)cc1-n1c(=O)ccc2cnc3ccc(-c4ccc(N)nc4)cc3c21 | 65 | 44 | –
9 | Nc1ccc(-c2ccc3ncc4ccc(=O)n(C5CCOCC5)c4c3c2)cn1 | 41 | 1340 | –
10 | NC(=O)c1ccc(-c2ccc3ncc4[nH]c(=O)n(-c5cccc(C(F)(F)F)c5)c4c3c2)cc1 | – | – | EC50 [2, 6]: 227 nM; EC50 [3, 7]: 45 nM
11 | O=c1ccc2cnc3ccc(C4=CCNCC4)cc3c2n1-c1cccc(C(F)(F)F)c1 | 18400 | 15700 | –
12 | Nc1ccc(-c2ccc3ncc4ccc(=O)n(C5CCCCC5)c4c3c2)cn1 | 676 | 707 | –
13 | O=c1ccc2cnc3ccc(-c4cncnc4)cc3c2n1-c1cccc(C(F)(F)F)c1 | 942 | 475 | –
14 | Cc1cccc(-n2c(=O)ccc3cnc4ccc(-c5ccc(N)nc5)cc4c32)c1 | 19 | 23 | –
15 | O=C(c1ccc(-c2ccc3ncc4ccc(=O)n(-c5cccc(C(F)(F)F)c5)c4c3c2)cc1)N1CCOCC1 | 22400 | 12000 | –
16 | CN(C)c1cccc(-c2ccc3ncc4ccc(=O)n(-c5cccc(C(F)(F)F)c5)c4c3c2)c1 | 3290 | 3250 | –
17 | O=c1ccc2cnc3ccc(-c4cccc(C(F)(F)F)c4)cc3c2n1-c1cccc(C(F)(F)F)c1 | 3380 | 4200 | –
18 | Nc1ccc(-c2ccc3ncc4[nH]c(=O)n(-c5cccc(C(F)(F)F)c5)c4c3c2)cn1 | – | – | EC50 [2, 6]: 88 nM; EC50 [3, 7]: 105 nM
19 | CNc1ccc2oc(C[C@H]3O[C@@]4(CC[C@H]3C)O[C@H]([C@H](C)C(=O)c3ccc[nH]3)[C@H](C)C[C@H]4C)nc2c1C(=O)O [Calcimycin] | – | – | IC50 [1]: 5900 nM; IC50 [2, 4]: 2640 nM
20 | CS(=O)(=O)c1ccc(-c2ccc3ncc4[nH]c(=O)n(-c5cccc(C(F)(F)F)c5)c4c3c2)cc1 | – | – | EC50 [2, 6]: 2050 nM; EC50 [3, 7]: 622 nM
21 | O=c1[nH]c2cnc3ccc(-c4ccc(O)cc4)cc3c2n1-c1cccc(C(F)(F)F)c1 | – | – | EC50 [2, 6]: 1420 nM; EC50 [3, 7]: 398 nM
22 | O=c1ccc2cnc3ccc(-c4ccc(-c5ccccc5)cc4)cc3c2n1-c1cccc(C(F)(F)F)c1 | 19300 | 15000 | –
23 | O=c1ccc2cnc3ccc(-c4ccc(O)cc4)cc3c2n1-c1cccc(C(F)(F)F)c1 | 165 | 129 | –

Row | Structure (SMILES) | EC50 [2, 5] [nM] | EC50 ([3]; Table 6) [nM] | other results
24 | O=c1[nH]c2cnc3ccc(-c4ccncc4)cc3c2n1-c1cccc(C(F)(F)F)c1 | – | – | EC50 [2, 6]: 1240 nM; EC50 [3, 7]: 211 nM
25 | O=c1ccc2cnc3ccc(-c4ccc5[nH]ccc5c4)cc3c2n1-c1cccc(C(F)(F)F)c1 | 325 | 191 | –
26 | NCc1ccc2ncc3ccc(=O)n(-c4cccc(C(F)(F)F)c4)c3c2c1 | 281 | 163 | –
27 | Cc1ccc(-c2ccc3ncc4[nH]c(=O)n(-c5cccc(C(F)(F)F)c5)c4c3c2)cn1 | – | – | EC50 [2, 6]: 443 nM; EC50 [3, 7]: 59 nM
28 | Nc1ccc(-c2ccc3ncc4ccc(=O)n(-c5ccc(N6CCNCC6)c(C(F)(F)F)c5)c4c3c2)cn1 | 10 | 9 | –
29 | O=c1[nH]c2cnc3ccc(-c4cnc5ccccc5c4)cc3c2n1-c1cccc(C(F)(F)F)c1 | – | – | EC50 [2, 6]: 212000 nM; EC50 [3, 7]: 5780 nM
30 | Cn1c(=O)n(-c2cccc(C(F)(F)F)c2)c2c3cc(-c4ccc(C(N)=O)cc4)ccc3ncc21 | – | – | EC50 [2, 6]: 109 nM; EC50 [3, 7]: 20 nM
31 | O=C1Cc2cc(-c3ccc4ncc5ccc(=O)n(-c6cccc(C(F)(F)F)c6)c5c4c3)ccc2N1 | 51 | 19 | –
32 | O=c1[nH]c2cnc3ccc(-c4ccc5[nH]cnc5c4)cc3c2n1-c1cccc(C(F)(F)F)c1 | – | – | EC50 [2, 6]: 543 nM; EC50 [3, 7]: 90 nM
33 | CC(=O)Nc1ccc(-c2ccc3ncc4[nH]c(=O)n(-c5cccc(C(F)(F)F)c5)c4c3c2)cn1 | – | – | EC50 [2, 6]: 123 nM; EC50 [3, 7]: 35 nM
34 | N#Cc1cccc(-n2c(=O)ccc3cnc4ccc(-c5ccc(N)nc5)cc4c32)c1 | 23 | 12 | –
35 | O=C1CCc2cc(-c3ccc4ncc5ccc(=O)n(-c6cccc(C(F)(F)F)c6)c5c4c3)ccc2N1 | 3170 | 1130 | –
36 | Nc1ccc(-c2ccc3ncc4ccc(=O)n(C5CC5)c4c3c2)cn1 | 215 | 560 | –
37 | O=c1[nH]c2cnc3ccc(-c4cccnc4)cc3c2n1-c1cccc(C(F)(F)F)c1 | – | – | EC50 [2, 6]: 5570 nM; EC50 [3, 7]: 1400 nM
38 | C=Cc1ccc2ncc3ccc(=O)n(-c4cccc(C(F)(F)F)c4)c3c2c1 | 4900 | 3240 | –
39 | O=c1ccc2cnc3ccc(-c4cncc(Cl)c4)cc3c2n1-c1cccc(C(F)(F)F)c1 | 8800 | 3590 | –
40 | O=c1ccc2cnc3ccc(-c4ccc5c(c4)OCC5)cc3c2n1-c1cccc(C(F)(F)F)c1 | 3310 | 2240 | –
41 | Cn1ccc2cc(-c3ccc4ncc5ccc(=O)n(-c6cccc(C(F)(F)F)c6)c5c4c3)ccc21 | 3260 | 2090 | –
42 | Nc1ccc(-c2ccc3ncc4ccc(=O)n(C5CCNCC5)c4c3c2)cn1 | 2800 | 2370 | –
43 | Cn1c(=O)n(-c2cccc(C(F)(F)F)c2)c2c3cc(-c4cnc(N)nc4)ccc3ncc21 | – | – | EC50 [2, 6]: 31 nM; EC50 [3, 7]: 7 nM
44 | O=c1ccc2cnc3ccc(-c4ccc(O)nc4)cc3c2n1-c1cccc(C(F)(F)F)c1 | 262 | 187 | –
45 | O=c1ccc2cnc3ccc(-c4cn[nH]c4)cc3c2n1-c1cccc(C(F)(F)F)c1 | 246 | 131 | –
46 | Nc1ccc(-c2ccc3ncc4ccc(=O)n(-c5cccc(S(N)(=O)=O)c5)c4c3c2)cn1 | 295 | 82 | –

Row | Structure (SMILES) | EC50 [2, 5] [nM] | EC50 ([3]; Table 6) [nM] | other results
47 | Nc1ccc(-c2ccc3ncc4[nH]c(=O)n(-c5cccc(C(F)(F)F)c5)c4c3c2)cc1 | – | – | EC50 [2, 6]: 630 nM; EC50 [3, 7]: 153 nM
48 | O=c1ccc2cnc3ccc(-c4ccncc4)cc3c2n1-c1cccc(C(F)(F)F)c1 | 246 | 92 | –
49 | Cc1ccc(-c2ccc3ncc4ccc(=O)n(-c5cccc(C(F)(F)F)c5)c4c3c2)cn1 | 65 | 33 | –
50 | Nc1ccc(-c2ccc3ncc4ccc(=O)n(-c5cccc(Oc6ccccc6)c5)c4c3c2)cn1 | 2430 | 1670 | –
51 | Nc1cccc(-c2ccc3ncc4[nH]c(=O)n(-c5cccc(C(F)(F)F)c5)c4c3c2)c1 | – | – | EC50 [2, 6]: 531 nM; EC50 [3, 7]: 137 nM
52 | O=c1ccc2cnc3ccc(-c4ccc(N5CCCCC5)nc4)cc3c2n1-c1cccc(C(F)(F)F)c1 | 8090 | 4900 | –
53 | O=c1ccc2cnc3ccc(-c4ccc5sccc5c4)cc3c2n1-c1cccc(C(F)(F)F)c1 | 3210 | 1640 | –
54 | O=c1ccc2cnc3ccc(-c4ccc5c(c4)OCO5)cc3c2n1-c1cccc(C(F)(F)F)c1 | 3130 | 802 | –
55 | Nc1ccc(-c2ccc3ncc4ccc(=O)n(-c5cccc(C(F)(F)F)c5)c4c3c2)cn1 [drawing 333] | 18 | 6 | –
56 | Cc1nc(N)ncc1-c1ccc2ncc3ccc(=O)n(-c4cccc(C(F)(F)F)c4)c3c2c1 | 2260 | 1150 | –
57 | Cn1c(=O)n(-c2cccc(C(F)(F)F)c2)c2c3cc(-c4cccc(N)c4)ccc3ncc21 | – | – | EC50 [2, 6]: 69 nM; EC50 [3, 7]: 16 nM
58 | O=c1ccc2cnc3ccc(-c4ccc(Cl)cc4)cc3c2n1-c1cccc(C(F)(F)F)c1 | 673 | 253 | –
59 | CCn1c(=O)ccc2cnc3ccc(-c4ccc(N)nc4)cc3c21 | 1650 | 1270 | –
60 | Nc1ncc(-c2ccc3ncc4ccc(=O)n(-c5cccc(C(F)(F)F)c5)c4c3c2)cn1 | 40 | 22 | –
61 | COc1ccc(-c2ccc3ncc4ccc(=O)n(-c5cccc(C(F)(F)F)c5)c4c3c2)cc1 | 3240 | 2460 | –
62 | O=C(c1ccc(-c2ccc3ncc4ccc(=O)n(-c5cccc(C(F)(F)F)c5)c4c3c2)cc1)N1CCNCC1 | 5570 | 7870 | –
63 | COc1cccc(-n2c(=O)ccc3cnc4ccc(-c5ccc(N)nc5)cc4c32)c1 | 137 | 95 | –
64 | NS(=O)(=O)c1cccc(-c2ccc3ncc4ccc(=O)n(-c5cccc(C(F)(F)F)c5)c4c3c2)c1 | 342 | 128 | –
65 | O=c1ccc2cnc3ccc(-c4ccc5nonc5c4)cc3c2n1-c1cccc(C(F)(F)F)c1 | 4520 | 1720 | –
66 | O=c1ccc2cnc3ccc(-c4ccc5[nH]cnc5c4)cc3c2n1-c1cccc(C(F)(F)F)c1 | 96 | 37 | –
67 | Nc1ncc(-c2ccc3ncc4[nH]c(=O)n(-c5cccc(C(F)(F)F)c5)c4c3c2)cn1 | – | – | EC50 [2, 6]: 246 nM; EC50 [3, 7]: 57 nM
68 | Nc1cccc(-c2ccc3ncc4ccc(=O)n(-c5cccc(C(F)(F)F)c5)c4c3c2)c1 | 103 | 120 | –
69 | Nc1ccc(-c2ccc3ncc4ccc(=O)n(-c5cccc(C(F)(F)F)c5)c4c3c2)cc1 | 147 | 99 | –
